± gives the expanded uncertainty stated by the source.
Assay: molar heat capacity at saturation pressure; xn = mol fraction of the nth substance listed

CCCCn1cc[n+](C)c1.Cc1ccc(S(=O)(=O)[O-])cc1 [1-butyl-3-methylimidazolium tosylate] + O
molar heat capacity [J/K/mol]
Conditions	Crystal	Metastable crystal
78.15 K, x1 = 0.83	130.09 ± 1.6	–
78.19 K, x1 = 0.83	–	130.61 ± 1.6
80.13 K, x1 = 0.83	132.44 ± 1.6	–
80.17 K, x1 = 0.83	–	132.96 ± 1.6
81.97 K, x1 = 0.83	134.26 ± 1.6	–
82.01 K, x1 = 0.83	–	135.05 ± 1.6
83.83 K, x1 = 0.83	136.35 ± 1.6	–
83.86 K, x1 = 0.83	–	137.39 ± 1.6
85.69 K, x1 = 0.83	138.43 ± 1.6	–
85.72 K, x1 = 0.83	–	139.48 ± 1.6
87.56 K, x1 = 0.83	140.78 ± 1.6	–
87.59 K, x1 = 0.83	–	141.82 ± 1.6
89.44 K, x1 = 0.83	142.87 ± 1.6	–
89.46 K, x1 = 0.83	–	144.17 ± 1.6
91.33 K, x1 = 0.83	144.95 ± 1.6	–
91.34 K, x1 = 0.83	–	146.26 ± 1.6
93.22 K, x1 = 0.83	147.04 ± 1.6	–
93.23 K, x1 = 0.83	–	148.6 ± 1.6
95.13 K, x1 = 0.83	149.12 ± 1.6	150.69 ± 1.6
97.03 K, x1 = 0.83	–	153.03 ± 1.6
97.04 K, x1 = 0.83	150.95 ± 1.6	–
98.94 K, x1 = 0.83	–	155.38 ± 1.8
98.95 K, x1 = 0.83	153.03 ± 1.6	–
100.85 K, x1 = 0.83	–	157.47 ± 1.8
100.88 K, x1 = 0.83	155.12 ± 1.8	–
102.77 K, x1 = 0.83	–	159.81 ± 1.8
102.8 K, x1 = 0.83	156.94 ± 1.8	–
104.69 K, x1 = 0.83	–	161.9 ± 1.8
104.74 K, x1 = 0.83	159.03 ± 1.8	–
106.61 K, x1 = 0.83	–	164.24 ± 1.8
106.68 K, x1 = 0.83	161.12 ± 1.8	–
108.55 K, x1 = 0.83	–	166.33 ± 1.8
108.63 K, x1 = 0.83	163.2 ± 1.8	–
110.48 K, x1 = 0.83	–	168.68 ± 1.8
110.57 K, x1 = 0.83	165.03 ± 1.8	–
112.41 K, x1 = 0.83	–	170.76 ± 1.8
112.53 K, x1 = 0.83	167.11 ± 1.8	–
114.35 K, x1 = 0.83	–	173.11 ± 1.8
114.48 K, x1 = 0.83	169.2 ± 1.8	–
116.29 K, x1 = 0.83	–	175.19 ± 1.8
116.44 K, x1 = 0.83	171.02 ± 1.8	–
118.23 K, x1 = 0.83	–	177.54 ± 1.8
118.4 K, x1 = 0.83	173.11 ± 1.8	–
120.18 K, x1 = 0.83	–	179.89 ± 1.8
120.37 K, x1 = 0.83	175.19 ± 1.8	–
122.12 K, x1 = 0.83	–	182.23 ± 1.8
122.34 K, x1 = 0.83	177.02 ± 1.8	–
124.07 K, x1 = 0.83	–	184.32 ± 1.8
124.3 K, x1 = 0.83	179.1 ± 1.8	–
126.01 K, x1 = 0.83	–	186.66 ± 1.8
126.27 K, x1 = 0.83	181.19 ± 1.8	–
127.96 K, x1 = 0.83	–	189.01 ± 2.1
128.25 K, x1 = 0.83	183.28 ± 1.8	–
129.91 K, x1 = 0.83	–	191.36 ± 2.1
130.22 K, x1 = 0.83	185.36 ± 1.8	–
131.86 K, x1 = 0.83	–	193.7 ± 2.1
132.19 K, x1 = 0.83	187.45 ± 2.1	–
133.81 K, x1 = 0.83	–	196.05 ± 2.1
134.16 K, x1 = 0.83	189.79 ± 2.1	–
134.57 K, x1 = 0.3	80.15 ± 1.1	–
135.75 K, x1 = 0.83	–	198.4 ± 2.1
136.14 K, x1 = 0.83	192.14 ± 2.1	–
137.46 K, x1 = 0.3	81.31 ± 1.1	–
137.7 K, x1 = 0.83	–	201 ± 2.1
138.11 K, x1 = 0.83	194.75 ± 2.1	–
139.65 K, x1 = 0.83	–	203.09 ± 2.1
140.08 K, x1 = 0.83	197.88 ± 2.1	–
140.19 K, x1 = 0.3	82.47 ± 1.1	–
141.59 K, x1 = 0.83	–	205.7 ± 2.1
142.04 K, x1 = 0.83	201.53 ± 2.1	–

Reference: the NIST ThermoML archive (doi:10.1021/je700152c)
